Assay results: patent publication US20060079453A1, “Hla binding peptides and their uses” (priority 2002, published 2006)
Like-named read-outs stand apart in the source and are kept apart here. No end group written: not given here.

Tests used:
Assay in all cases: biochemical
Assay type in all cases: binding
HLA-DR DRB1*0101 (DR1) = HLA-DR DRB1*0101 (DR1) (Homo sapiens, UniProt P01903+P01911, A100R/D57E/F55L/F60I/F76Y/I96L/L162R/M171V/P40L/Q125E/R42F/V115G/Y59C)
HLA-DR DRB1*0401 (DR4) = HLA-DR DRB1*0401 (DR4) (Homo sapiens, UniProt P01903+P01911, A100K/A169T/F76Y/I96L/K127E/L162R/M171V/N62H/P40V/Q125Y/R42H/S133A/S149N/S66Y/V115G/V209L/W38E)
HLA-DR DRB1*0405 (DR4) = HLA-DR DRB1*0405 (DR4) (Homo sapiens, UniProt P01903+P01911, A100R/A169T/D86S/F76Y/I96L/K127E/L162R/M171V/N62H/P40V/Q125Y/R42H/S133A/S149N/S66Y/V115G/V209L/W38E)
HLA-DR DRB1*0802 (DR8) = HLA-DR DRB1*0802 (DR8) (Homo sapiens, UniProt P01903+P01911, A100R/A103L/A169T/F76Y/H45Y/I96F/K41T/L162R/M171V/P40S/Q125H/Q178H/Q39Y/Q99D/R218S/R42G/S66Y/V115G/W38E)
HLA-DR DRB5*0101 (DR51) = HLA-DR DRB5*0101 (DR51) (Homo sapiens, UniProt P01903+Q30154); details: DRB5 *0101
HLA-DR DRB1*0301 (DR3) = HLA-DR DRB1*0301 (DR3) (Homo sapiens, UniProt P01903+P01911, A100K/A102G/A103R/A169T/F55Y/I96L/K41T/L162R/M171V/P40S/Q125H/Q178H/Q39Y/R42S/S66N/T106N/T262R/W38E/Y61H)
HLA-DR DRB1*0301 (DR3), sequence (P01903 26-254 limits assumed, other chains not shown): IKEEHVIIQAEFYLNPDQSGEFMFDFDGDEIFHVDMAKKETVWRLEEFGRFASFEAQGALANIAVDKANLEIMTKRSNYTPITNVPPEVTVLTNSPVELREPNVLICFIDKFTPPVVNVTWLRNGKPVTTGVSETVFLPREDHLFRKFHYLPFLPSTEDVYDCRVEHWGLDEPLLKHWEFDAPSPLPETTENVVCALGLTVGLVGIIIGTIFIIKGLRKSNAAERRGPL

HLA-DR DRB1*0701 (DR7) = HLA-DR DRB1*0701 (DR7) (Homo sapiens, UniProt P01903+P01911, A100R/A102G/A103Q/D57E/D86V/E43K/F76Y/K127E/L162R/M171V/P40G/Q125H/Q99D/R33Q/R42Y/R54Q/S133A/S66F/T210M/V115G/Y107V/Y59L/Y89S)
HLA-DR DRB1*0901 (DR9) = HLA-DR DRB1*0901 (DR9) (Homo sapiens, UniProt P01903+P01911, A100R/A103E/D57H/D86V/F55Y/F60I/F76Y/I96F/K127E/L162R/M171V/P40D/Q125H/Q99R/R33Q/R42F/S133A/S66N/T210M/V115G/W38K/Y107V/Y59G/Y89S)
HLA-DR DRB1*1101 (DR11) = HLA-DR DRB1*1101 (DR11) (Homo sapiens, UniProt P01903+P01911, A100R/A169T/A87E/I96F/K41T/L162R/M171V/P40S/Q125H/Q178H/Q39Y/Q99D/R42S/S66Y/T262R/V115G/W38E)
HLA-DR DRB1*1101 (DR11), sequence (P01903 26-254 limits assumed, other chains not shown): as above

HLA-DR DRB1*1302 (DR13) = HLA-DR DRB1*1302 (DR13) (Homo sapiens, UniProt P01903+P01911, A100E/A169T/K41T/L162R/M171V/P40S/Q125H/Q178H/Q39Y/Q99D/R42S/S66N/T262R/V115G/W38E/Y61H)
HLA-DR DRB1*1302 (DR13), sequence (P01903 26-254 limits assumed, other chains not shown): as above

HLA-DR DRB1*1501 (DR15) = HLA-DR DRB1*1501 (DR15) (Homo sapiens, UniProt P01903+P01911)
HLA-DR DRB4*0101 (DR53) = HLA-DR DRB4*0101 (DR53) (Homo sapiens, UniProt P01903+P13762, G164S)

Compound	IC50 (HLA-DR DRB1*0101 (DR1); DRB1 *0101)	IC50 (HLA-DR DRB1*0401 (DR4); DRB1 *0401)	IC50 (HLA-DR DRB1*0405 (DR4); DRB1 *0405)	IC50 (HLA-DR DRB1*0802 (DR8))	IC50 (HLA-DR DRB5*0101 (DR51))	IC50 (HLA-DR DRB1*0301 (DR3))	IC50 (HLA-DR DRB1*0701 (DR7); DRB1 *0701)	IC50 (HLA-DR DRB1*0901 (DR9); DRB1 *0901)	IC50 (HLA-DR DRB1*1101 (DR11); DRB1 *1101)	IC50 (HLA-DR DRB1*1302 (DR13); DRBI *1302)	IC50 (HLA-DR DRB1*1501 (DR15); DRBI *1501)	IC50 (HLA-DR DRB4*0101 (DR53); DRB4 *0101)	IC50 (HLA-DR DRB1*0405 (DR4); read-out: DRB1 *0405)	IC50 (HLA-DR DRB1*0802 (DR8); read-out: DRB1 *0802)	other results
MKHILYISFYFILVN	5.89 µM	0.189 µM	3.38 µM	15.6 µM	> 9.52 µM										
LKLVYRDDFPYAVCR	0.778 µM	0.123 µM	0.83 µM		9.16 µM	0.237 µM	29 µM	18.7 µM	0.698 µM	0.699 µM	1.88 µM	3.83 µM			
CC[C@H](C)[C@H](N)C(=O)N[C@@H](C)C(=O)NCC(=O)N[C@@H](CC(C)C)C(=O)N[C@@H](Cc1ccccc1)C(=O)N[C@@H](CC(C)C)C(=O)N[C@H](C(=O)N[C@H](C(=O)N[C@@H](CCC(=O)O)C(=O)N[C@@H](C)C(=O)N[C@H](C(=O)N[C@H](C(=O)N[C@@H](C)C(=O)N[C@@H](CC(=O)O)C(=O)N[C@@H](CCCCN)C(=O)O)C(C)C)C(C)C)[C@@H](C)O)[C@@H](C)O				3.89 µM											IC50 (HLA-DR DRB1*0101 (DR1)): 0.0068 µM; IC50 (HLA-DR DRB1*0401 (DR4)): 0.013 µM; IC50 (HLA-DR DRB1*0405 (DR4)): 0.067 µM; IC50 (HLA-DR DRB1*0701 (DR7)): 0.23 µM; IC50 (HLA-DR DRB1*0901 (DR9)): 0.409 µM; IC50 (HLA-DR DRB1*1101 (DR11)): 0.867 µM; IC50 (HLA-DR DRB1*1302 (DR13)): > 10.3 µM; IC50 (HLA-DR DRB1*1501 (DR15)): > 50.8 µM; IC50 (HLA-DR DRB4*0101 (DR53)): > 26.4 µM
TLERPKTLSPQKNGV													> 28.6 µM	> 75.4 µM	IC50 (HLA-DR DRB1*0301 (DR3); read-out: DRB1 *0301): 134 µM; IC50 (HLA-DR DRB1*0401 (DR4); read-out: DRB1 *0401): > 22.5 µM; IC50 (HLA-DR DRB1*0701 (DR7); read-out: DRB1 *0701): 26 µM; IC50 (HLA-DR DRB1*0901 (DR9); read-out: DRB1 *0901): > 300 µM
PVIKNSIKLRL	1.55 µM	34.2 µM	278 µM		1.04 µM	0.198 µM	4.09 µM	2.85 µM	2.77 µM	0.077 µM	2.58 µM	0.198 µM			
VRVEILRYFYVINRL													0.018 µM	3.58 µM	IC50 (HLA-DR DRB1*0101 (DR1); read-out: DRB1 *0101): 0.0018 µM; IC50 (HLA-DR DRB1*0401 (DR4); read-out: DRB1 *0401): 0.14 µM; IC50 (HLA-DR DRB1*0701 (DR7); read-out: DRB1 *0701): 0.014 µM; IC50 (HLA-DR DRB1*0901 (DR9); read-out: DRB1 *0901): 0.485 µM
LRTLQQMLLGTLQVV	0.08 µM	0.437 µM	0.079 µM		> 46.6 µM	> 3750 µM	6.91 µM	5.08 µM	0.907 µM	0.616 µM	1.7 µM	0.088 µM			
ESTGMTPEKVPVSEVMGT													> 71.4 µM	> 31.2 µM	IC50 (HLA-DR DRB1*0301 (DR3); read-out: DRB1 *0301): > 50 µM; IC50 (HLA-DR DRB1*0401 (DR4); read-out: DRB1 *0401): > 47.4 µM
RTSIRASLTFNRGFK		0.77 µM	5.13 µM	5.48 µM		0.256 µM	0.411 µM		4.81 µM			0.079 µM			
WAGLLLDTRTLEVQS	2.02 µM	0.049 µM	1.24 µM	> 61.2 µM	> 102 µM	0.022 µM			21 µM	0.092 µM	3.47 µM				
AYVLLSEKKISSIQS	0.078 µM	0.943 µM	9.47 µM	0.027 µM	4.52 µM		3.85 µM	3.34 µM	0.051 µM	0.816 µM	0.489 µM	0.902 µM			
ALIYNYGLLYCFRKD													0.551 µM	> 33.3 µM	IC50 (HLA-DR DRB1*0101 (DR1); read-out: DRB1 *0101): 0.137 µM; IC50 (HLA-DR DRB1*0301 (DR3); read-out: DRB1 *0301): 9.82 µM
YGRILHYLKAKEDSH	0.03 µM	2.34 µM	0.023 µM	0.704 µM		42.4 µM	0.9 µM								
